Laboratory results published in article PMC8465942, “Cyano- and Ketone-Containing Selenoesters as Multi-Target Compounds against Resistant Cancers” (Cancers, 2021).
Entries after “also recorded” stand apart in the source; their conditions may differ. Marks after values point to notes of the source that are not given here.

Experiments:
[1] = tested on: resistant Colo 320 colon adenocarcinoma cells expressing the ABCB1 transporter; assay: Checkerboard combination assay with doxorubicin; assay type: cell-based, human; conditions: for Interaction with doxorubicin: in at least one of the ratios tested
[2] = tested on: Colo 320/MDR-LRP human colonic adenocarcinoma cell line; assay: Cytotoxicity (MTT) on resistant Colo 320 cells; assay type: cell-based; conditions: for IC50: Homo sapiens, COLO 320, 24 h, MTT, read-out: Colo 320 (IC50 µM) Mean; for SI MRC-5/Colo 320: ratio IC50 non-tumour cells / IC50 cancer cells
How it was run: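 10^4 cells/well in RPMI-1640 were exposed to two-fold serial dilutions (0.19–100 μM) for 24 h at 37 °C. MTT was added for 4 h, then SDS/HCl overnight, with OD read at 540 nm (ref. 630 nm). IC50 = dose giving 50% growth reduction, from non-linear regression of triplicates.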

[3] = tested on: HeLa (cervical adenocarcinoma); assay: Cytotoxicity on HeLa cells; assay type: cell-based, human; conditions: ratio IC50 non-tumour cells / IC50 cancer cells
[4] = tested on: HeLa (cervical adenocarcinoma); assay: Cytotoxicity on HeLa cells; assay type: cell-based; conditions: Homo sapiens
[5] = tested on: HepG2 (hepatocellular carcinoma); assay: Cytotoxicity on HepG2 cells; assay type: cell-based; conditions: Homo sapiens
[6] = ratio 1.2:1, starting conc. 10 µM
[7] = ratio 2.4:1, starting conc. 10 µM
[8] = ratio 4.8:1, starting conc. 10 µM
[9] = ratio 9.6:1, starting conc. 10 µM
[10] = ratio 19.2:1, starting conc. 10 µM
[11] = ratio 38.4:1, starting conc. 10 µM

Structure (SMILES) | Interaction with doxorubicin [1] | Type of Interaction [1, 6] | Type of Interaction [1, 7] | Type of Interaction [1, 8] | Type of Interaction [1, 9] | Type of Interaction [1, 10] | Type of Interaction [1, 11] | IC50 [2] [µM] | SI MRC-5/Colo 320 [2] | SI MRC-5/HeLa [3] | IC50 [4] [µM] | IC50 [5] [µM] | Type of Interaction ([1]; ratio 0.9:1, starting conc. 8 µM) | Type of Interaction ([1]; ratio 1.8:1, starting conc. 8 µM) | Type of Interaction ([1]; ratio 3.6:1, starting conc. 8 µM) | Type of Interaction ([1]; ratio 7.2:1, starting conc. 8 µM) | Type of Interaction ([1]; ratio 14.4:1, starting conc. 8 µM) | Type of Interaction ([1]; ratio 28.8:1, starting conc. 8 µM)
N#CC[Se]C(=O)c1ccc(Br)cc1 [N3, Se-(Cyanomethyl) 4-Bromobenzoselenoate] | synergistic manner; also recorded: synergistic effect | Antagonism | Strong antagonism | Moderate synergism | Additive effect | Slight antagonism | Moderate antagonism | 4.37 | >6 * | >6 * | 2.4 | 9.6 |  |  |  |  |  | 
N#CC[Se]C(=O)c1ccccc1C(F)(F)F [N4, Se-(Cyanomethyl) 2-(Trifluoromethyl)benzoselenoate] | synergistic manner; also recorded: synergistic effect | Antagonism | Strong antagonism | Moderate synergism | Additive effect | Slight antagonism | Moderate antagonism | 5.57 | >6 * | >6 * | 2.5 | 5.2 |  |  |  |  |  | 
N#CC[Se]C(=O)c1cc(C(F)(F)F)cc(C(F)(F)F)c1 [N7, Se-(Cyanomethyl) 3,5-Bis(trifluoromethyl)benzoselenoate] | synergistic manner; also recorded: synergistic effect |  |  |  |  |  |  | 3.78 | >6 * | >6 * | 2.1 | 11.8 | Antagonism | Strong antagonism | Slight synergism | Antagonism | Antagonism | Additive effect
